This is an account of results in patent US20140090094A1, “MODULATORS OF SLC22A7” (BAYER INTELLECTUAL PROPERTY GmbH, priority 2011, published 2014).

In one data set the target is T1, OAT2r (Rattus norvegicus, UniProt Q5RLM2).
T1 construct: expressed in transfected cells
T1 sequence (Q5RLM2 1-535): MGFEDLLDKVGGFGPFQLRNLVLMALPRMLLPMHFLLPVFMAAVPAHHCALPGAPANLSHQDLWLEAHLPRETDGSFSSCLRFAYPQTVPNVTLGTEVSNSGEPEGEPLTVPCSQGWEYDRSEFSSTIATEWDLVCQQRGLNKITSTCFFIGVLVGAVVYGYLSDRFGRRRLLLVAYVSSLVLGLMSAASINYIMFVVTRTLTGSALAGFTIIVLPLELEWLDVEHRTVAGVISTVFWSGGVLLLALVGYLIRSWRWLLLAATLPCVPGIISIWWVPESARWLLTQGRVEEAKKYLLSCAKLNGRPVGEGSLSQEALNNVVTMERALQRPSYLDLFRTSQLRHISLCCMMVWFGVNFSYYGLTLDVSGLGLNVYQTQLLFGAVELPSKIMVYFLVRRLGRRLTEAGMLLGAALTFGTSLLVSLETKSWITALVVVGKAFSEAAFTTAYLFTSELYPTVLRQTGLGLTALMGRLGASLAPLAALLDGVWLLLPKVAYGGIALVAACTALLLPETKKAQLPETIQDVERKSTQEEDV
Nature of the data set: intracellular glutamate content of 293 cells expressing OAT2r versus uninduced control cells. The format is cell-based. To be noted: n=4.

For data set [1] the following is noted: cited from earlier work.
The target in data set [2] is OAT2h splice variant E131_W132insSQ (Homo sapiens, UniProt Q9Y694). As to conditions: initial rate 1 min, 37° C., 10 μmol/l, LC-MS/MS, uptake buffer in the expression period. How it is done: A substrate search by LC-MS difference shading was performed with 293 cells stably transfected to express OAT2 from rat. […] To verify that trigonelline is directly transported by OAT2 and not just increased indirectly, initial rates of uptake (1 min, 37° C.) of trigonelline (10 μmol/l) were determined by LC-MS/MS.
For measurement of solute uptake, cells were grown in surface culture on 60 mm polystyrol dishes (Nunclon 150288, Nunc, Roskilde, Denmark) precoated with 0.1 g/l poly-L-ornithine in 0.15 M boric acid-NaOH, pH 8.4. Cells were used for uptake experiments at a confluence of at least 70%. Uptake was measured at 37° C. […] Radioactivity was determined, after cell lysis with 0.1% v/v Triton X-100 in 5 mmol/l TRIS-HCl pH 7.4, by liquid scintillation counting. […]
After centrifugation (1 min, 16000×g, 20° C.) of thawed lysates, 100 μl of the supernatant was mixed with either 10 μl unlabeled MPP+ iodide (0.5 ng/μl) or biphenyl-4-carboxylic acid (Sigma-Aldrich) as internal standard. Of this mixture, […] were analyzed by LCMS/MS on a triple quadrupole mass spectrometer (4000 Q TRAP, Applied Biosystems, Darmstadt, Germany). […] For quantification (scan time 150 ms), the optimal collision energy for argon-induced fragmentation in the second quadrupole was determined for each analyte. […] Acute uptake mediated by heterologously expressed carrier was then calculated as (c−a)−(d−b). […]

As for `N[C@@H](CCC(=O)O)C(=O)O` [glutamate], the “intracellular glutamate content versus uninduced control cells (factor f)” value at OAT2r turned out to be 0.55±0.11.
Take `O=C(O)c1cc(=O)[nH]c(=O)[nH]1` [orotic acid]: the pKa entry in data set [1] is on record as “≈ 2.4”.
`C[n+]1cccc(C(=O)[O-])c1` [trigonelline] registered a carrier-mediated clearance in data set [2] of 2.5±0.9 μl min-1 mg protein-1.
